In PMC10674403, “Imperatorin Restores Chemosensitivity of Multidrug-Resistant Cancer Cells by Antagonizing ABCG2-Mediated Drug Transport” (Pharmaceuticals, 2023):

Experiments:
ABCG2 [1] = target: T1, ABCG2 (Homo sapiens, UniProt Q9UNQ0); assay: Vanadate-sensitive ATPase stimulation in ABCG2 membrane vesicles (Pi release); also inhibition of PhA efflux in ABCG2-transfected HEK293 cells; format: biochemical; design: membrane vesicles derived from ABCG2 baculovirus-infected High Five insect cells
T1 sequence (Q9UNQ0 1-655): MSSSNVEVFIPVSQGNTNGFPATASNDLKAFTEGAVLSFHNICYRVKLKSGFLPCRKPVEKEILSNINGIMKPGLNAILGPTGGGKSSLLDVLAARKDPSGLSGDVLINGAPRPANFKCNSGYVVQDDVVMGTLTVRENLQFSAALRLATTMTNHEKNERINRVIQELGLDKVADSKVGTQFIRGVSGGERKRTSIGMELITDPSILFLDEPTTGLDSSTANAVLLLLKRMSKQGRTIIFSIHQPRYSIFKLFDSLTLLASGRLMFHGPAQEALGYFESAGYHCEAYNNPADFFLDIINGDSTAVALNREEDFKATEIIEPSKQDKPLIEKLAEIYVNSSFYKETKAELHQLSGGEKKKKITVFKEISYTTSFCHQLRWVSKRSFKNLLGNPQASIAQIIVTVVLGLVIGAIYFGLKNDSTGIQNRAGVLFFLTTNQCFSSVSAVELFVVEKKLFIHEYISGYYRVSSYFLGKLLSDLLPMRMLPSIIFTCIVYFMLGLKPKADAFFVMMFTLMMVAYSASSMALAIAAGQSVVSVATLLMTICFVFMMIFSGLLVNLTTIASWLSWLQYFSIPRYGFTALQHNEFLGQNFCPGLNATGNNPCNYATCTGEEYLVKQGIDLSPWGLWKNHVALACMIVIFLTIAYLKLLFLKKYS

ABCG2 [2] = target: T1, ABCG2; assay: Fluorescent substrate accumulation/efflux by flow cytometry in ABCG2-expressing versus parental cells; format: cell-based; design: human ABCG2-transfected R482-HEK293 cells; S1-MI-80 and H460-MX20 cells

CC(C)=CCOc1c2occc2cc2ccc(=O)oc12 [IMP, Imperatorin]
EC50 (ABCG2 [1]): ~0.17 µM

C=Cc1c(C)c2cc3nc(c4c5[nH]c(cc6nc(cc1[nH]2)C(C)=C6CC)c(C)c5C(=O)[C@@H]4C(=O)OC)[C@@H](CCC(=O)O)[C@@H]3C [PhA, pheophorbide A]
Fluorescent substrate accumulation/efflux by flow cytometry in ABCG2-expressing (ABCG2 [2]): ABCG2-mediated efflux of an ABCG2-specific fluorescent substrate PhA
